# Structures can show the parent of a compound that is named as a salt.
# Columns and labels:
# [1] = Side effects and CNS/behaviour: tremor (TD50), sedative and m-cholinomimetic effects; format: in vivo; settings: in vivo, toxic dose causing tremor in 50 % of the animals
# Source text: Von Interesse ist der Einfluß der erfindungsgemäßen Verbindungen auf das ZNS und das Verhalten der Tiere.
# [2] = Acute toxicity, single intraperitoneal injection, probit analysis (LD50); format: in vivo, Mäusen; settings: mouse, in vivo, ip, mice, i.p., read-out: LD50
# Source text: Ihre akute Toxizität wurde an Mäusen (einmalige intraperitoneale Injektion) nach der Methode der Probit-Analyse nach Zichtfield, Wilcoxon, t949 untersucht. In Tabelle 2 sind die Parameter der akuten Toxizität (LDso) angegeben, die eine mäßige Toxizität der erfindungsgemäßen Verbindungen belegen.
# α2-Adrenorezeptoren = assay: Radioligand displacement of 3H-clonidine in cerebral cortex; format: binding, Kaninchens
# Source text: (§1) Dies beweisen spezielle Radioligandenuntersuchungen an einzelnen erfindungsgemäßen Verbindungen (s. Tabelle 6).
# M-cholinrezeptoren = assay: Radioligand displacement of 3H-Propyl-2-aminobenzylat in brain; format: binding, Kaninchens
# Source text: as §1
# [3] = test system: Nerven-Muskel-Präparat von Mäusen (n.peroneus-m.extensor digitorum longus); assay: Neuromuscular transmission in isolated nerve-muscle preparation (EPP, minEPP)
# In short: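 Mouse peroneal nerve–extensor digitorum longus preparation, isolated and perfused with O2/CO2-gassed Lilly solution. EPPs and spontaneous minEPPs were recorded by magnetograph, then analysed by computer for frequency, amplitude and duration.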
# [4] = test system: Na -Durchlässigkeit der Membrane des Ranvier-Schnürringes; assay: Na+ permeability of the node of Ranvier membrane, voltage clamp; parameters: species or system Frosches; settings: node of Ranvier, frog sciatic nerve fibres, voltage clamp; concentration giving 50 % block of ion permeability; read-out: Blockierung der Na^+-Durchlässigkeit der Membrane Ic50 (Mol)
# In short: (§2)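 Frog sciatic nerve fibres studied at the node of Ranvier under voltage clamp, measuring membrane Na+ and K+ permeability.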
# Samenleiter der Ratte = assay: Contractile activity of smooth muscle: rat vas deferens; settings: Samenleiter der Ratte, n = 9
# In short: (§3)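 Isolated rat uterus and vas deferens; effects of compounds on smooth-muscle contractile activity and on responses to acetylcholine, serotonin, adrenaline and KCl as agonists. Contraction amplitude and duration recorded mechanically.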
# Uterus der Ratte = assay: Contractile activity of smooth muscle: rat uterus; settings: n = 9; for Acetylcholin 1.10^-6 (Mol): Dauer, Min.: Uterus der Ratte (as head prints); for Serotonin 1.10^-6 (Mol): Dauer, Min.: Uterus der Ratte
# In short: as §3
# M2-Cholinrezeptoren = molecular target: T1, M2-Cholinrezeptoren (Oryctolagus cuniculus, UniProt G1TBX1); assay: Radioligand displacement of 3H-Chinuklidin in heart; format: binding, Kaninchen
# T1 construct: im Kaninchen-herzen (M2-Cholinre-zeptoren); from tissue; host or cells: rabbit heart
# T1 sequence (G1TBX1 1-520): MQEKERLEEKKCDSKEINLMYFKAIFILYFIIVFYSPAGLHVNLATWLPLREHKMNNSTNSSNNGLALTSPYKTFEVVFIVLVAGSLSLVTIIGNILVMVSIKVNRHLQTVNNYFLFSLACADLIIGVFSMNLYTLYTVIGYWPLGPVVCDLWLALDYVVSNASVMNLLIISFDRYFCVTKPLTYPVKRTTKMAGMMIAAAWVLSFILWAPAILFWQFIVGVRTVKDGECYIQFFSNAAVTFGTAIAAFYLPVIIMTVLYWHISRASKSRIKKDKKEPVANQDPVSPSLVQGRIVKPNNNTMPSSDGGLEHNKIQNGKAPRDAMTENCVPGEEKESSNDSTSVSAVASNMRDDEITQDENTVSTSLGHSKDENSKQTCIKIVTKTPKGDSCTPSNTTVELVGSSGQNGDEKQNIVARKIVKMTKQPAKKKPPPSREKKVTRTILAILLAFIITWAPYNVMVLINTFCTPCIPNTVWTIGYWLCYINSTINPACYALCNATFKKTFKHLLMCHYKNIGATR
# Source text: as §1
# [5] = test system: durch Skopolamin hervorgerufene Amnesie; assay: Dark avoidance assay (passive avoidance), scopolamine-induced amnesia; format: in vivo, Mäusen; settings: mice, compound s.c. 5 min before learning, Skopolamin i.p. 30 min before
# [6] = test system: K -Durchlässigkeit der Membrane des Ranvier-Schnürringes; assay: K+ permeability of the node of Ranvier membrane, voltage clamp; parameters: species or system Frosches; settings: node of Ranvier, frog sciatic nerve fibres, voltage clamp; concentration giving 50 % block of ion permeability; read-out: Blockierung der K^+-Durchlässigkeit der Membrane Ic50 (Mol)
# In short: as §2
# [7] = Konzentration 1.10^-5 Mol, 10 µM
# [8] = Konzentration 1.10^-6 Mol, 1 µM
smiles,measurement,setting,value
"Nc1c2c(nc3c1CCC3)CCCC2 [Verbindung 40, 9-Amino-2,3,5,6,7,8-hexahydro-1 H-cyclopenta(b)chinolinhydrochloridhydrat, reference compound]",TD50,[1],23.2 mg/kg
same,LD50,[2],44 mg/kg
same,Verdrängung des 3H-Clonidins in der Hirnrinde des Kaninchens (α2-Adrenorezeptoren),α2-Adrenorezeptoren; [7],10
same,Verdrängung des 3H-Clonidins in der Hirnrinde des Kaninchens (α2-Adrenorezeptoren),α2-Adrenorezeptoren; [8],0
same,α2-adrenoblockierende Wirkung,"α2-Adrenorezeptoren; in words, from radioligand studies",fehlt jedoch praktisch
same,Verdrängung des 3H-Propyl-2-aminobenzylats im Gehirn des Kaninchens (M-cholinrezeptoren),M-cholinrezeptoren; [7],10
same,Verdrängung des 3H-Propyl-2-aminobenzylats im Gehirn des Kaninchens (M-cholinrezeptoren),M-cholinrezeptoren; [8],0
same,"Stimulierung der Nerven-Muskelübertragung, in % der Amplitude: EPP",[3]; EPP = Endplattenpotential,55%
same,"Stimulierung der Nerven-Muskelübertragung, in % der Amplitude: minEPP",[3]; minEPP,100%
same,IC50,[4],200 µM
same,"Adrenalin 1.10^-6: Dauer, Min.",Samenleiter der Ratte; Konzentration 1.10^-4 Mol,28±0.8 Min.
same,"Adrenalin 1.10^-6: Dauer, Min.",Samenleiter der Ratte; Konzentration 1.10^-5 Mol,25±0.6 Min.
same,"Acetylcholin 1.10^-6 (Mol): Dauer, Min.",Uterus der Ratte; Konzentration 1.10^-4 Mol,30±0.9 Min.
same,"Acetylcholin 1.10^-6 (Mol): Dauer, Min.",Uterus der Ratte; Konzentration 1.10^-5 Mol,30±0.5 Min.
same,"Serotonin 1.10^-6 (Mol): Dauer, Min.",Uterus der Ratte; Konzentration 1.10^-4 Mol,30±0.5 Min.
same,"Serotonin 1.10^-6 (Mol): Dauer, Min.",Uterus der Ratte; Konzentration 1.10^-5 Mol,25±0.4 Min.
same,Verdrängung des 3H-Chinuklidins im Kaninchenherzen (M2-Cholinrezeptoren),M2-Cholinrezeptoren; [7],0
same,Verdrängung des 3H-Chinuklidins im Kaninchenherzen (M2-Cholinrezeptoren),M2-Cholinrezeptoren; [8],0
same,"Einfluß auf das Gedächtnis: Zahl der Tiere in %, bei denen die Skopolaminwirkung aufgehoben wurde",[5],60%
same,IC50,[6],450 µM
